The values that follow are results of earlier work, collected in patent publication US20100119624A1, “BENZISOXAZOLE MODULATORS OF D2 RECEPTOR AND/OR 5-HT2A RECEPTOR” (AUSPEX PHARMACEUTICALS, INC., priority 2008, published 2010).

For data set [1] the following is noted: coadministration of nafzodone, a competitive CYP3A inhibitor.
The conditions of data set [2]: in vivo.
A further data set has as its system prolactin. As to conditions: in vivo.

Regarding `Cc1nc2n(c(=O)c1CCN1CCC(c3noc4cc(F)ccc34)CC1)CCCC2` [Risperidone, 4-[2-[4-(6-fluorobenzo[d]isoxazol-3-yl)-1-piperidyl]ethyl]-3-methyl-2,6-diazabicyclo[4.4.0]deca-1,3-dien-5-one], in data set [1], the “decrease in risperidone clearance” value is ~50%. Further, the half-life entry in data set [2] is “about 2 hours”.
For the molecule `Cc1nc2n(c(=O)c1CCN1CCC(c3noc4cc(F)ccc34)CC1)CCCC2O` (stereo not drawn) [9-Hydroxyrisperidone], the levels of prolactin result with prolactin was “elevation in the levels of prolactin”.
